Here are results for eleven molecules from ChEMBL document CHEMBL3751826, “Sulfamide derivatives with selective carbonic anhydrase VII inhibitory action” (Bioorg Med Chem, 2016).

Some targets named below: Carbonic anhydrase 1 (Homo sapiens, UniProt P00915); Carbonic anhydrase 2 (Homo sapiens, UniProt P00918); Carbonic anhydrase 7 (Homo sapiens, UniProt P43166); Carbonic anhydrase 9 (Homo sapiens, UniProt Q16790); Carbonic anhydrase 12 (Homo sapiens, UniProt O43570); Carbonic anhydrase 14 (Homo sapiens, UniProt Q9ULX7).

Sequence of Carbonic anhydrase 14 (Q9ULX7 whole entry): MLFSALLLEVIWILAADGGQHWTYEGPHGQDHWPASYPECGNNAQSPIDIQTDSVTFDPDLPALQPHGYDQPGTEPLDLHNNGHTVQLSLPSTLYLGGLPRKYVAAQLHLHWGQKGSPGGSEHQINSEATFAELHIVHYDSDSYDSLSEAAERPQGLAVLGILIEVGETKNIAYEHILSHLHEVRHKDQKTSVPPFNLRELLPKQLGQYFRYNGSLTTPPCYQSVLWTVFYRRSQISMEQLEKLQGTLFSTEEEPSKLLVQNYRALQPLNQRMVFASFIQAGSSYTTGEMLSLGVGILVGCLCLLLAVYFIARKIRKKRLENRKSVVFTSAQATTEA
Sequence of Carbonic anhydrase 12 (O43570 whole entry): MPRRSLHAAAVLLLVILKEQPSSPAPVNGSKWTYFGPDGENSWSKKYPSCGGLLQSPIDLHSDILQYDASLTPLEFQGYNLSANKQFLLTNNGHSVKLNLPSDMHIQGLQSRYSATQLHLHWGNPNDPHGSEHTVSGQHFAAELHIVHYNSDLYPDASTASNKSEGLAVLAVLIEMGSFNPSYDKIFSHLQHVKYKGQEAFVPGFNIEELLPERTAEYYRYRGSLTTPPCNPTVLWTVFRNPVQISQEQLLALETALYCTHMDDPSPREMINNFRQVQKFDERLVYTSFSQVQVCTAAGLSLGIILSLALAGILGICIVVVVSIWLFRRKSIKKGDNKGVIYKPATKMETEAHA
Sequence of Carbonic anhydrase 1 (P00915 whole entry): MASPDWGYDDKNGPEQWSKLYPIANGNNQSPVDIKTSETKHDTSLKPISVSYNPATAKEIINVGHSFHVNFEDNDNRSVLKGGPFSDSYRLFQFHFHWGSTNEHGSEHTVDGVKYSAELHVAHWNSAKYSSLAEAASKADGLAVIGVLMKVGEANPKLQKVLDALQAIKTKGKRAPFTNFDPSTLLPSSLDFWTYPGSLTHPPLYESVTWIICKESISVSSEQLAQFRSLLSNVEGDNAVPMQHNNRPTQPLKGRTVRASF
Sequence of Carbonic anhydrase 7 (P43166 whole entry): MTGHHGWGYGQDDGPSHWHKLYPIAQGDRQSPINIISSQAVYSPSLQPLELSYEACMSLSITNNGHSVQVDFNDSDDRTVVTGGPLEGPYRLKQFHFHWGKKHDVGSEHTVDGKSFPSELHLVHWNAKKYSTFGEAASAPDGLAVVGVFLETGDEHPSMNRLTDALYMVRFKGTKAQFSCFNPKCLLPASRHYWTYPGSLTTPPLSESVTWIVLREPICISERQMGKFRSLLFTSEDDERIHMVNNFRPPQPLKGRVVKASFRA
Description for Carbonic anhydrase 12: Inhibition of recombinant human carbonic anhydrase 12 preincubated for 15 mins by stopped-flow CO2 hydration assay
Description for Carbonic anhydrase 14: Inhibition of recombinant human carbonic anhydrase 14 preincubated for 15 mins by stopped-flow CO2 hydration assay
Description for Carbonic anhydrase 2: Inhibition of recombinant human carbonic anhydrase 2 preincubated for 15 mins by stopped-flow CO2 hydration assay
Description for Carbonic anhydrase 7: Inhibition of recombinant human carbonic anhydrase 7 preincubated for 15 mins by stopped-flow CO2 hydration assay
Description for Carbonic anhydrase 9: Inhibition of recombinant human carbonic anhydrase 9 preincubated for 15 mins by stopped-flow CO2 hydration assay

As for `COC(=O)[C@H](Cc1ccccc1)NS(=O)(=O)NCC(C)C`, the inhibition constant (Ki) (commonly the equilibrium dissociation constant of an inhibitor or competing ligand from its target) at Carbonic anhydrase 1 was more than 10 µM; at Carbonic anhydrase 2, 8.53 µM; at Carbonic anhydrase 7, 0.00037 µM; on Carbonic anhydrase 9, 0.225 µM; on Carbonic anhydrase 12 it was 0.0068 µM; on Carbonic anhydrase 14, 0.0077 µM.
As for `COC(=O)[C@@H](NS(=O)(=O)NCc1ccc(F)cc1)C(C)C`, the inhibition constant (Ki) was more than 10 µM on Carbonic anhydrase 1; more than 10 µM on Carbonic anhydrase 2; 0.00024 µM at Carbonic anhydrase 7; 0.0257 µM at Carbonic anhydrase 9; 0.00074 µM at Carbonic anhydrase 12; 0.0074 µM at Carbonic anhydrase 14.
`COC(=O)CCNS(=O)(=O)NCc1ccc(F)cc1`: the inhibition constant (Ki) on Carbonic anhydrase 1 is more than 10 µM; at Carbonic anhydrase 2, 8.88 µM; at Carbonic anhydrase 7, 0.00045 µM; at Carbonic anhydrase 9, 0.0293 µM; at Carbonic anhydrase 12 it was 0.0744 µM; on Carbonic anhydrase 14, 0.0227 µM.
In the case of `COC(=O)[C@H](Cc1ccccc1)NS(=O)(=O)NCc1ccc(F)cc1`, the inhibition constant Ki is more than 10 µM at Carbonic anhydrase 1; more than 10 µM on Carbonic anhydrase 2; 0.00028 µM on Carbonic anhydrase 7; 0.0281 µM on Carbonic anhydrase 9; 0.00066 µM at Carbonic anhydrase 12; 0.0065 µM on Carbonic anhydrase 14.
Consider `COC(=O)CCNS(=O)(=O)NCCc1ccccc1`, for which the Ki at Carbonic anhydrase 1 is more than 10 µM; at Carbonic anhydrase 2 it was more than 10 µM; at Carbonic anhydrase 7, 0.0022 µM; on Carbonic anhydrase 9, 0.0265 µM; on Carbonic anhydrase 12, 0.0642 µM; at Carbonic anhydrase 14 it was 0.0073 µM.
Take `COC(=O)CCNS(=O)(=O)NCC(C)C`: the Ki on Carbonic anhydrase 1 is more than 10 µM; on Carbonic anhydrase 2 it was more than 10 µM; at Carbonic anhydrase 7 it was 0.00027 µM; at Carbonic anhydrase 9, 0.0318 µM; at Carbonic anhydrase 12 it was 0.0047 µM; at Carbonic anhydrase 14 it was 0.0063 µM.
In the case of `COC(=O)CCNS(=O)(=O)NC(C)c1ccccc1` (stereo unspecified), the inhibitory constant (Ki) on Carbonic anhydrase 1 was more than 10 µM; at Carbonic anhydrase 2 it was more than 10 µM; on Carbonic anhydrase 7 it was 0.00031 µM; at Carbonic anhydrase 9 it was 0.117 µM; on Carbonic anhydrase 12, 0.0052 µM; at Carbonic anhydrase 14, 0.0075 µM.
For `CCCCCCNS(=O)(=O)NCCC(=O)OC`, the inhibitory constant (Ki) is more than 10 µM at Carbonic anhydrase 1; 7.68 µM on Carbonic anhydrase 2; 0.0003 µM on Carbonic anhydrase 7; 0.0967 µM at Carbonic anhydrase 9; 0.005 µM on Carbonic anhydrase 12; 0.0061 µM at Carbonic anhydrase 14.
Turning to `COC(=O)[C@@H](NS(=O)(=O)NCC(C)C)C(C)C`, the Ki at Carbonic anhydrase 1 was more than 10 µM; on Carbonic anhydrase 2, more than 10 µM; on Carbonic anhydrase 7 it was 0.00039 µM; on Carbonic anhydrase 9, 0.191 µM; at Carbonic anhydrase 12 it was 0.0337 µM; on Carbonic anhydrase 14, 0.0078 µM.
For the molecule `COC(=O)CCNS(=O)(=O)NC12CC3CC(CC(C3)C1)C2`, the Ki at Carbonic anhydrase 1 is more than 10 µM; at Carbonic anhydrase 2, 4.96 µM; on Carbonic anhydrase 7 it was 0.00043 µM; at Carbonic anhydrase 9, 0.0305 µM; on Carbonic anhydrase 12, 0.0607 µM; on Carbonic anhydrase 14, 0.008 µM.
`O=S(=O)([O-])NC1CCCCC1.[Na+]` [SODIUM CYCLAMATE]: the Ki at Carbonic anhydrase 1 was more than 10 µM; on Carbonic anhydrase 2, more than 10 µM; on Carbonic anhydrase 7 it was 0.00024 µM; on Carbonic anhydrase 9, 0.0813 µM; at Carbonic anhydrase 12 it was 0.0038 µM; at Carbonic anhydrase 14, 0.0066 µM.
